From patent publication US11957757B2, “Method for preparing stabilized metal ion ligand nanocomplex and compositions thereof” (AUBURN UNIVERSITY, priority 2017, dated 2024)

Tests used:
[1] = tested on: DU145-TXR cells; assay: Intracellular ROS, H2DCFDA dye method; assay type: cell-based; details: 100 μM, positive control
Protocol: The generation of ROS was determined with a 2′,7′-dichlorodihydrofluorescein diacetate (H2DCFDA) dye method. Briefly, cells were seeded in a dark-walled, clear-bottomed 96-well plate with 50,000 cells per well and incubated at 37° C. overnight before study. Cells were incubated with 20 μM H2DCFDA in Hank's Buffered Salt Solution (HBSS, pH=7.4) for 30 minutes at 37° C. in the dark, and treated with different formulations.

[2] = tested on: DU145-TXR drug-resistant prostate cancer cells; assay: MTT cytotoxicity assay, DU145-TXR cells; assay type: cell-based; details: for cell toxicity: equivalent concentrations, 48 hours
Protocol: Cells were cultured at 37° C. in a humidified atmosphere containing 5% CO2. […] Cytotoxicity was calculated using the following equation: Cell Viability (%)=(ATest/Acontrol)×100%. Furthermore, IC50 was calculated with SigmaPlot software based on a dose-response curve.

[3] = tested on: DU145-TXR cells; assay: Endoplasmic reticulum (ER) staining; details: 0.5 μM, 8 hours

## OO [H2O2]
[1]
  ROS level: increased

## CCN(CC)C(=S)S [DDC-Na, sodium diethyldithiocarbamatetrihydrate]
[2]
  cell toxicity: did not show significant cell toxicity

## CC(=O)O[C@H]1C(=O)[C@@]2(C)[C@H]([C@H](OC(=O)c3ccccc3)[C@]3(O)C[C@H](OC(=O)[C@H](O)[C@@H](NC(=O)c4ccccc4)c4ccccc4)C(C)=C1C3(C)C)[C@]1(OC(C)=O)CO[C@@H]1C[C@@H]2O [paclitaxel]
[2]; 48 hours of treatment
  IC50: 2580 nM
[3]
  ER structure (ER-specific dye staining): typical reticulate structure

## [Cl][Cu][Cl] [CuCl2, copper chloride]
[2]
  cell toxicity: did not show significant cell toxicity
